What all share (format): in vivo
One assay relates to Male rats. The experiment in a line: Anti-inflammatory activity (a-tocopherol pouch test). The procedure: A rapid subcutaneous injection of 25 mL of air was made between the scapulae of each rat. […] The test compound was administered in daily oral doses for 7 days beginning on the day of pouch formation. The compound to be tested was suspended in 1% gum tragacanth. Twenty-four hours after the last medication, the pouches were dissected free, and the fluid volume was measured. The inhibition of liquid exudate is a measure of the anti=inflammatory activity.

The next assay has as its system Mature female rats. The experiment in a line: Endocrine profile (thymus, adrenal and body weight after 2 weeks oral medication). The settings on record: compared with the controls. The procedure: The test procedures used to determine the biological activities of the compounds of the invention were carried out as follows: • Endocrine Profile: Mature female rats with an average body weight of 202 g and a body weight range of 15 g or less were medicated orally with test compound for 2 weeks. The test compound was prepared as a solution or suspension in 1% gum tragacanth or 0.75% methyl cellulose. On the day following the last medication, the rats were killed and the thymus and adrenal of each rat were removed, cleaned, and weighed. Body weights and food consumptions were also recorded.

In assay [1] the test system is Mature male rats were bilaterally adrenalectomized. Briefly: Glycogenic activity (liver glycogen deposition test). From the text:
Glycogenic Activity: Mature male rats were bilaterally adrenalectomized 5 days prior to the test. These rats were medicated orally with the test compound for 5 days. Seven hours after the last medication, the rats (which have been fasted overnight) were anesthetized with sodium pentobarbital and a portion of one lobe of the liver was removed and frozen on dry ice for subsequent glycogen determination.

By ED50 is commonly meant the dose at which the effect has come halfway, by size or by number of responders. The compound `CC12Cc3cnn(-c4ccc(F)cc4)c3C=C1CCC1OC3(CC=C12)C(=O)c1ccccc1C3=O` (centres unmarked) [Compound I (R = F), 8'-(4-Fluorophenyl)-2',3',5',6',ll',lla'-hexahydro-lla'-methylspiro-2H-indene[2,3']-3H-pyrazolo[4",5":7',6']-naphtho-[2,1-b] pyran-1,3-dione] yielded a 50% effective dose (ED50) in the assay with Male rats (Rattus norvegicus, 168 h, daily oral doses for 7 days, male rats, inhibition of liquid exudate) of 10 mg/kg. Moreover, in the assay with Male rats (rats, general statement), the “anti-inflammatory activity by the a-tocopherol pouch test” value is “anti-inflammatory activity”. In the assay with Mature female rats (dose level of 1 mg/kg), the “reduction in adrenal weight” value is reported as 56%, the “reduction in body weight gain” value is 129% and the “reduction in thymus weight” value came out at 61%. Moreover, the “liver glycogen deposition value” in assay [1] (dose level of 9 mg/kg/day x 5, oral, adrenalectomized male rats, vehicle 2.2 + 0.04 mg/g) is listed as 21.8 + 4.4 mg/g of tissue. Moreover, the “glucocorticoid activity by the liver glycogen deposition test” value in assay [1] (oral, rats, general statement) was “oral glucocorticoid activity”.
`CC12Cc3cnn(-c4ccccc4)c3C=C1CCC1OC3(CC=C12)C(=O)c1ccccc1C3=O` (centres unmarked) [Compound I (R = H), 2',3',5',6',11',11a'-Hexahydro-11a'-methyl-8'-phenylspiro 2H-indene[2,3']-3H-pyrazolo[4",5":7',6']naphtho[2,1-b] pyran-1,3-dione]: the “activity in the a-tocopherol pouch test” value in the assay on Male rats (dose level of 100 mg/kg, daily oral doses for 7 days, male rats) is “inactive”. In the assay with Mature female rats (dose level of 5 mg/kg), the “reduction in adrenal weight” value worked out at 38%, the “reduction in body weight gain” value is recorded as 62% and the “reduction in thymus weight” value was 51%.

These data come from patent EP0103030A1, “Polycyclic fused pyrazole compounds, useful as anti-inflammatory agents, and preparation thereof” (STERLING DRUG INC., priority 1982, dated 1984).
